Laboratory results from patent US6969738B2, “Malic acid diester surfactants” (Air Products and Chemicals, Inc., priority 1999, dated 2005).

How the values were obtained:
Type in all cases: physicochemical
[1] = Dynamic surface tension of aqueous solutions, maximum bubble pressure method; details: for γ(0.1 wt % solution) (1 b/s) / γ(0.1 wt % solution) (6 b/s) / pC20 / limiting γ (0.1 b/s) / limiting γ (1 b/s) / limiting γ (6 b/s) / limiting γ (20 b/s): 25° C.; for pC20: negative logarithm of molar concentration giving 52.1 dyne/cm at 0.1 b/s; for limiting γ (0.1 b/s) / limiting γ (1 b/s) / limiting γ (6 b/s) / limiting γ (20 b/s): water
Source text: In the following Examples dynamic surface tension data were obtained for aqueous solutions of various compounds using the maximum bubble pressure method at bubble rates from 0.1 bubbles/second (b/s) to 20 b/s. […] In practical terms, high bubble rates correspond to high printing speeds in lithographic printing, high spray or roller velocities in coating applications, and rapid application rates for agricultural products.
(§1) Solutions of the materials of Examples 1-10 in distilled water were prepared. […] The pC20 value is defined as the negative logarithm of the molar concentration of surfactant required to decrease the surface tension of an aqueous solution to […], that is, 20 dyne/cm below that of pure water when the measurement is performed at 0.1 b/s. This value is a measure of the efficiency of a surfactant. […] In addition, the relative efficiency of surfactants can be obtained by comparing surface tension reduction of solutions containing the same amount of different surfactants. Such data is given for 0.1 wt % solutions of the dialkylmalates at 1.0 and 6.0 bubbles/second (b/s). The solubility limit was determined by intersection of the linear portion of a surface tension/In concentration curve with the limiting surface tension as is described in many textbooks. The limiting surface tensions at 0.1, 1, 6 and 20 b/s represent the lowest surface tensions in water which can be achieved at the given surface creation rates for a given surfactant regardless of the amount of surfactant used and is used to evaluate the effectiveness of a surfactant. These values give information about the relative ability of a surfactant to reduce surface defects under near-equilibrium conditions (0.1 b/s) through very dynamic conditions (20 b/s). Lower surface tensions would allow the elimination of defects upon application of a formulation onto lower energy surfaces.

[2] = Solubility limit in water from surface tension/ln concentration curve; details: distilled water, 25° C.
Description: as §1

[3] = Foam test of 0.1 wt % solutions, procedure based upon ASTM D 1173-53; details: 0.1 wt % solution
Description: The foaming properties of 0.1 wt % solutions of the dialkylmalate surfactants of this invention were examined using a procedure based upon ASTM D 1173-53. In this test, a 0.1 wt % solution of the surfactant is added from an elevated foam pipette to a foam receiver containing the same solution. The foam height is measured at the completion of the addition (“Initial Foam Height”) and the time required for the foam to dissipate at the air-liquid interface (“Time to 0 Foam”) is recorded. This test provides a comparison between the foaming characteristics of various surfactant solutions. In general, in coatings, inks, adhesives, fountain solutions and agricultural compositions, foam is undesirable because it complicates handling and can lead to coating and print defects, and to inefficient application of agricultural materials.

| SMILES | γ(0.1 wt % solution) (1 b/s) [1] | γ(0.1 wt % solution) (6 b/s) [1] | pC20 [1] | limiting γ (0.1 b/s) [1] | limiting γ (1 b/s) [1] | limiting γ (6 b/s) [1] | limiting γ (20 b/s) ([1]; 20 b/s) | solubility limit [2] | initial foam [3] | time to zero foam [3] | decrease in the limiting surface tension compared to dibutyl-DL-malate ([1]; 20 b/s) | limiting γ (20 b/s) ([1]; 20 b/s, listed as diisobutyl-DL-malate) | limiting γ (20 b/s) ([1]; 20 b/s, listed as diisopropyl-(S)-(−)-malate) |
| --- | --- | --- | --- | --- | --- | --- | --- | --- | --- | --- | --- | --- | --- |
| CCCCOC(=O)CC(O)C(=O)OCCCC (racemic) [Example 2, Dibutyl-DL-malate] | 43.8 dyne/cm | 44.8 dyne/cm | 3.04 | 35.8 Dyne/cm | 36.0 Dyne/cm | 36.5 Dyne/cm | 38.6 Dyne/cm | 0.3 Weight % | 0.9 cm | 20 s |  |  |  |
| CC(C)CCOC(=O)CC(O)C(=O)OCCC(C)C (racemic) [Example 6, Diisoamyl-DL-malate] | 36.8 dyne/cm | 39.5 dyne/cm | 3.86 | 35.6 Dyne/cm | 36.8 Dyne/cm | 39.5 Dyne/cm | 48.0 Dyne/cm | 0.04 Weight % | 0.3 cm | 0.3 s |  |  |  |
| CCC(C)OC(=O)CC(O)C(=O)OC(C)CC (racemic) [Example 4, Di-sec-butyl-DL-malate] | 47.8 dyne/cm | 48.5 dyne/cm | 2.77 | 36.5 Dyne/cm | 36.7 Dyne/cm | 37.3 Dyne/cm | 38.1 Dyne/cm | 0.6 Weight % | 1.0 cm | 60 s |  |  |  |
| CC(C)COC(=O)CC(O)C(=O)OCC(C)C (racemic) [Example 3, Diisobutyl-DL-malate] | 44.1 dyne/cm | 45.2 dyne/cm | 3.08 | 33.5 Dyne/cm | 33.3 Dyne/cm | 33.4 Dyne/cm | 35.3 Dyne/cm | 0.4 Weight % | 0.6 cm | 0.2 s | 3.3 dyne/cm | less than 36 Dyne/cm |  |
| CC(C)OC(=O)C[C@H](O)C(=O)OC(C)C [Example 1, Diisopropyl-(S)-(−)-malate] | 59.2 dyne/cm | 60.1 dyne/cm | 1.83 | 33.6 Dyne/cm | 33.8 Dyne/cm | 34.0 Dyne/cm | 35.3 Dyne/cm | 5 Weight % | 1.3 cm | 14 s |  |  | < 34 Dyne/cm |
| O=C(CC(O)C(=O)OCc1ccccc1)OCc1ccccc1 (racemic) [Example 10, Dibenzyl-DL-malate] | 61.5 dyne/cm | 65.2 dyne/cm | 2.23 | 54.0 Dyne/cm | 57.7 Dyne/cm | 60.3 Dyne/cm | 70.0 Dyne/cm | 0.08 Weight % | 0 cm | 0 s |  |  |  |
| CCCCCOC(=O)CC(O)C(=O)OCCCCC (racemic) [Example 5, Dipentyl-DL-malate] | 38.2 dyne/cm | 40.5 dyne/cm | 3.52 | 36.8 Dyne/cm | 38.2 Dyne/cm | 40.5 Dyne/cm | 50.1 Dyne/cm | 0.03 Weight % | 0.5 cm | 0.2 s |  |  |  |
| CCCCCCOC(=O)CC(O)C(=O)OCCCCCC (racemic) [Example 8, Dihexyl-DL-malate] | 58.8 dyne/cm | 52.0 dyne/cm | 3.25 | 55.6 Dyne/cm | 65.2 Dyne/cm | 69.3 Dyne/cm | 71.2 Dyne/cm | 0.005 Weight % | 0.5 cm | 0.1 s |  |  |  |
| CC(C)CC(C)OC(=O)CC(O)C(=O)OC(C)CC(C)C (racemic) [Example 9, Di(4-methyl-2-pentyl)-DL-malate] | 46.2 dyne/cm | 56.4 dyne/cm | 3.84 | 40.8 Dyne/cm | 50.9 Dyne/cm | 63.9 Dyne/cm | 69.4 Dyne/cm | 0.02 Weight % | 0 cm | 0 s |  |  |  |
| CCC(C)COC(=O)CC(O)C(=O)OCC(C)CC (racemic) [Example 7, Di(2-methylbutyl)-DL-malate] | 38.9 dyne/cm | 41.2 dyne/cm | 3.47 | 37.8 Dyne/cm | 38.9 Dyne/cm | 41.2 Dyne/cm | 49.7 Dyne/cm | 0.04 Weight % | 1.2 cm | 0.1 s |  |  |  |
